# In patent US20070054348A1, “Methods of screening bifunctional molecules for modulated pharmacokinetic properties” (priority 2005, published 2007):
# Experiments:
# CYP3A4 = CYP3A4 (Homo sapiens, UniProt P08684)
# Description: Both the curcumin-FK506 and TZDM-SLF bifunctional compounds include a ligand to the pertidyl-prolyl isomerase FKBP. Therefore, FKBP12 was used in the assay as the PMP. A control was also performed with FK506 in the presence and absence of FKBP12.
# The coding sequence of human FKBP12 was subcloned into a pGEX2t vector. Bacteria transformed with this vector produce a fusion protein between FKBP12 and glutathione S-transferase (GST). FKBP12 is purified by standard methods and the GST tag enzymatically removed. Pure FKBP was flash-frozen, and stored at −80° C. at 10-100 micromolar in HEPES or phosphate buffer pH 7.0.
# The CYP3A4 compound and the green substrate VIVID® DBOMF (Invitrogen) were used in the assay with the recombinant human FKBP12 (rhFKBP12) and one of the bifunctional compounds. […] Increasing concentrations of the bifunctional compound, curcumin-FK506, were added to this system, either in the presence (open symbols) or absence (closed symbols) of rhFKBP12 at one micromolar.
# However, it has never been tested in an in vitro screen. Therefore, rhFKBP12 and FK506 were added to the VIVID assay. The open symbols are FK506+FKBP and the filled symbols are FK506 alone.
# [1] = stated as known; cited from earlier work
# COS-1 cells = assay: Fluorescence microscopy of cellular distribution in cultured COS-1 cells; format: cell-based; settings: FIG. 3
# Description: Cellular and tissue distribution of a bifunctional molecule consisting of a FKBP-binding group was also assessed. Such re-distribution is due to changes in the physicochemical characteristics of the new molecule and also is driven by specific, high-affinity interactions with FKBP. For example, the distribution of TZDM and TZDM-SLF were studied in cultured COS-1 cells (see FIG. 3). The intrinsic fluorescence of TZDM was used was a convenient handle for following drug distribution. […] Thus, sequestering FKBP-binding drugs both reduces accessibility to P450 enzymes and also alters the distribution of the bifunctional compounds.
# [2] = molecular target: T1, cytochrome p450 3A4 (CYP3A4) (Homo sapiens, UniProt P08684); assay: Cytochrome P450 susceptibility assay using whole cells (FKBP-expressing CHO cells in the VIVID assay); format: in vitro ADME; settings: FKBP-expressing Chinese hamster ovary cells (CHO) added, FIG. 4
# T1 construct: purchased Invitrogen
# T1 sequence (P08684 whole entry): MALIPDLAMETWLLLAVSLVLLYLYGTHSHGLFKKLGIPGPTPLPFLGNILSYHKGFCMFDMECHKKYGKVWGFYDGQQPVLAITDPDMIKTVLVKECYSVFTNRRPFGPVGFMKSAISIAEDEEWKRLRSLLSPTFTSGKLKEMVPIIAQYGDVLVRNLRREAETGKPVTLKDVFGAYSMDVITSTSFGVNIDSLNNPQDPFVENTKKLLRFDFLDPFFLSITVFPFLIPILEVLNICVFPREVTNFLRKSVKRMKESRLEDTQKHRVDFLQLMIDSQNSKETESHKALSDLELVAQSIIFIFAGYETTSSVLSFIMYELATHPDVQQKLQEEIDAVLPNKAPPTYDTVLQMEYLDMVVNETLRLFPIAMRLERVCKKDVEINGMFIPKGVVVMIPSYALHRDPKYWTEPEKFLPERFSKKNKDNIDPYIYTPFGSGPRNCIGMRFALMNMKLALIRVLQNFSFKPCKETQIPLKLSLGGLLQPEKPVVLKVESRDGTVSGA
# Description: In addition to using rhFKBP12 or other recombinant proteins, whole cells were also tested using the cytochrome P450 assay platform. […] Unconjugated curcumin (triangle) was used as a negative control.
# CYP3A4, sequence (P08684 whole entry): as above
smiles,measurement,setting,value
C=CC[C@@H]1/C=C(\C)C[C@H](C)C[C@H](OC)[C@H]2O[C@@](O)(C(=O)C(=O)N3CCCC[C@H]3C(=O)O[C@H](/C(C)=C/[C@@H]3CC[C@@H](O)[C@H](OC)C3)[C@H](C)[C@@H](O)CC1=O)[C@H](C)C[C@@H]2OC [FK506],protection from metabolism by CYP on binding the protein partner FKBP,CYP3A4; human,protected from P450 metabolism by the presence of the protein partner
same,protection from degradation in whole animals,[1],known to be protected from degradation in whole animals
CN(C)c1ccc(-c2nc3ccc(I)cc3s2)cc1 [TZDM],cellular distribution by intrinsic fluorescence,COS-1 cells,resides in membranes
COc1cc(/C=C/C(=O)C(C(=O)/C=C/c2ccc(O)c(OC)c2)c2ccc(NC(=O)OCC[C@@H]3/C=C(\C)C[C@H](C)C[C@H](OC)[C@H]4O[C@@](O)(C(=O)C(=O)N5CCCC[C@H]5C(=O)OC(/C(C)=C/[C@@H]5CC[C@@H](O)[C@H](OC)C5)[C@H](C)C(O)CC3=O)[C@H](C)C[C@@H]4OC)cc2)ccc1O (stereo partly drawn) [curcumin-FK506],fluorescence of the reaction in the presence of rhFKBP12 compared to the reaction lacking rhFKBP12,CYP3A4,higher
same,protection from P450 metabolism by addition of FKBP-expressing cells,[2],protected by addition of the FKBP-expressing cells
COc1cc(/C=C/C(=O)CC(=O)/C=C/c2ccc(O)c(OC)c2)ccc1O [curcumin],protection from P450 metabolism by addition of FKBP-expressing cells,[2],less protected
